Data: article PMC9960827, “Cloning and Characterization of Trypanosoma congolense and T. vivax Nucleoside Transporters Reveal the Potential of P1-Type Carriers for the Discovery of Broad-Spectrum Nucleoside-Based Therapeutics against Animal African Trypanosomiasis” (International Journal of Molecular Sciences, 2023)
Read-outs that look alike come from different tables or passages of the source.

Legend:
L. mexicana Cas9 = assay: Resazurin drug sensitivity assay, LmexCas9; format: cell-based, Leishmania mexicana; details: read-out: LmexCas9 EC50
Protocol: (§1) EC50 values were determined by plotting to an equation for a sigmoid curve with variable slope (GraphPad Prism 8). All values were the average of at least three independent determinations on different days.

T. vivax [1] = tested on: T. vivax; parameters: method as in Mabille et al. [69]; details: added for comparison only; ref Mabille et al. [69]; cited from earlier work
T. congolense IL3000 [2] = assay: Alamar Blue (resazurin) assay, T. congolense IL3000; format: cell-based, Trypanosoma congolense; details: Trypanosoma congolense, read-out: T. congolense IL3000 EC50
Protocol: as §1

T. equiperdum [3] = assay: Alamar Blue (resazurin) assay, T. equiperdum; format: cell-based, Trypanosoma equiperdum; details: Trypanosoma equiperdum, read-out: T. equiperdum EC50
Protocol: as §1

[4] = tested on: human embryonic kidney (HEK) cells; assay: Resazurin toxicity assay on human embryonic kidney cells; format: cell-based; details: for SI T. congolense: selectivity index = EC50 (HEK cells)/EC50 (T. congolense); for SI T. equiperdum: selectivity index = EC50 (HEK cells)/EC50 (T. equiperdum); for SI T. evansi: selectivity index = EC50 (HEK cells)/EC50 (T. evansi)
Protocol: as §1

[5] = as above; format: cell-based; details: human
Protocol: as §1

T. congolense 6C3 [6] = assay: microbe, parasite or virus in culture; format: cell-based, Trypanosoma congolense; details: for EC50: Trypanosoma congolense, diminazene resistant strain, resazurin, read-out: T. congolense 6C3 EC50; for T. congolense 6C3 RF: resistance factor = EC50 (test strain)/EC50(control strain)
Protocol: as §1

L. mexicana SUPKO+TvxNT3 = assay: microbe, parasite or virus in culture; format: cell-based, Leishmania mexicana; details: for EC50: read-out: SUPKO+TvxNT3 EC50; for SUPKO+TvxNT3 RF (SUPKO): Resistance Factor relative to SUPKO
Protocol: as §1

L. mexicana SUPKO = assay: microbe, parasite or virus in culture; format: cell-based, Leishmania mexicana; details: for SUPKO RF (Cas9): Resistance Factor = EC50(SUPKO)/EC50(Cas9)
Protocol: as §1

L. mexicana SUPKO+TcoAT1 = assay: microbe, parasite or virus in culture; format: cell-based, Leishmania mexicana; details: for EC50: read-out: SUPKO+TcoAT1 EC50; for SUPKO+TcoAT1 RF (SUPKO): Resistance Factor relative to SUPKO
Protocol: as §1

T. evansi [7] = assay: Alamar Blue (resazurin) assay, T. evansi; format: cell-based, Trypanosoma evansi; details: Trypanosoma evansi, read-out: T. evansi EC50
Protocol: as §1

T.b.b. B48 [8] = assay: Alamar Blue (resazurin) assay, T. b. brucei B48; format: cell-based, Trypanosoma brucei brucei; details: Trypanosoma brucei, read-out: T.b.b. B48 EC50
Protocol: as §1

TcoAT1 = format: cell-based, Trypanosoma congolense
Description: (§2) The information for the T. congolense adenosine transporter (TcoAT1) and four putative T. vivax nucleoside transporters was obtained in the TritrypDB (tritrypdb.org/tritrypdb) genome database. Primers were designed to flank each gene upstream of the 5′ end (forward) and downstream of the 3′ end (reverse) as described (primer sequences in Supplementary Table S2). Following amplification from the genomic DNA of T. congolense or T. vivax, DNA for each extracted gene was ligated into the pNUS-HcN expression vector doubly digested with NdeI using the NEBuilder kit according to the manufacturer’s instructions (New England Biolabs). Construct was transformed into competent E. coli cells, and ligation was confirmed by restriction enzyme digestion of isolated plasmid DNA followed by Sanger sequencing (Source BioScience, Nottingham, UK). Confirmed plasmids were then transfected into L. mexicana cell line in which both NT1 and NT2 were doubly knocked out (SUPKO) and derived from L. mexicana Cas9 [64] as described. Clones grown in medium containing 50 μg/mL neomycin (G418) were collected for further confirmation by PCR with genomic DNA using a forward primer of the transporter gene and a reverse primer of the plasmid.
(§3) Uptake assays using radiolabeled trypanocides and/or nucleosides were carried out as described previously. Briefly, parasite cultures were harvested, washed twice in assay buffer (33 mM HEPES, 98 mM NaCl, 4.6 mM KCl, 0.5 mM CaCl2, 0.07 mM MgSO4, 5.8 mM NaH3PO4, 0.03 mM MgCl2, 23 mM NaHCO3, 14 mM D-glucose, pH 7.3), then resuspended and adjusted to a density of 1 × 10^8 cells/mL in assay buffer. The radiolabeled permeant in the presence or absence of different concentrations of potential inhibitors reconstituted in 100 μL assay buffer was deposited on top of 250 μL oil mix in microcentrifuge tubes; 1 × 10^7 parasites in 100 μL assay buffer were added to the tube and incubated for a pre-determined interval. The reaction was stopped by the addition of 1 mL of a high concentration of ice-cold unlabeled substrate in assay buffer (‘stop solution’) and centrifugation, or by immediate centrifugation at […] as appropriate. The microcentrifuge tubes were flash-frozen, and the bottom of each tube containing the cell pellet was cut off and transferred to a scintillation vial. Cell pellets were lysed in 2% SDS, after which scintillation fluid (Scintlogic U, Lablogic) was added, followed by overnight incubation in the dark. Scintillation was measured in a 300SL (Hidex) scintillation counter (Hidex). All the assays were conducted in triplicate and analysis was carried out using Microsoft Excel and GraphPad Prism. All kinetic parameters were obtained on at least 3 separate occasions.
(§4) The dose-dependent uptake assay allowed for the affinity of nucleoside analogs to different nucleoside transporters to be determined by measuring the extent to which the analogs compete with and inhibit the uptake of radiolabel adenosine. This allowed for the determination of biochemical parameters such as Km and Vmax through the application of the Michaelis–Menten equation V0 = Vmax([substrate]/([substrate] + Km)). The 50% Inhibitory Concentration (IC50) of the purines and pyrimidines and their analogs was determined from non-linear regression to sigmoid curves with variable slope (Prism 8), and the IC50 of the inhibitor and the Km of the labeled permeant were then used to calculate the inhibition constant (Ki) of the analogs through the Cheng–Prusoff equation: Ki = IC50/(1 + (L/Km)), where L denotes the radiolabel concentration. The calculated Ki was in turn used to determine the Gibbs free energy (ΔG^0) of the inhibitor–transporter interaction using the equation: ΔG^0 = -RTln(Ki), where R represents the gas constant and T symbolizes the absolute temperature in Kelvin [104].

TvxNT3 = TvxNT3 (Trypanosoma vivax, UniProt F9WV62); assay: cell-based; format: cell-based; details: Gibbs free energy of interaction, from Km or Ki
Sequence of TvxNT3 (F9WV62 entry or part of it): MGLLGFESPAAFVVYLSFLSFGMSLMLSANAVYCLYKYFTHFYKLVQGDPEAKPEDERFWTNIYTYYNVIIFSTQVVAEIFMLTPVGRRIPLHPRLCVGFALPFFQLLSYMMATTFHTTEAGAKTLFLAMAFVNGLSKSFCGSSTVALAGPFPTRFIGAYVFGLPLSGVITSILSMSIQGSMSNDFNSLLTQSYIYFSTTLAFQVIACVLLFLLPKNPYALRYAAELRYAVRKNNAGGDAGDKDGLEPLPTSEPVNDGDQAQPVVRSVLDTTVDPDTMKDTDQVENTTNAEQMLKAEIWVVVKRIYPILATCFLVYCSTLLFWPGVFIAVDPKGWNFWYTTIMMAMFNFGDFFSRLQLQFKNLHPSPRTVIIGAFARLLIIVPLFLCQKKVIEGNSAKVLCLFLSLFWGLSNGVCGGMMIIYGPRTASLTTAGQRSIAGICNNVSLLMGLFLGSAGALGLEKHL
Description: as §2, §3, §4

T.b.b. B48 [9] = tested on: T.b.b. B48; parameters: method as in Hulpia et al. [38]; details: compound marked *; ref Hulpia et al. [38]; cited from earlier work
T. evansi [10] = tested on: T. evansi; parameters: method as in Hulpia et al. [38]; details: compound marked *; ref Hulpia et al. [38]; cited from earlier work
T. congolense IL3000 [11] = tested on: T. congolense IL3000; parameters: method as in Hulpia et al. [38]; details: values marked *; ref Hulpia et al. [38]; cited from earlier work
T. congolense 6C3 [12] = tested on: T. congolense 6C3; parameters: method as in Hulpia et al. [38]; details: values marked *; ref Hulpia et al. [38]; cited from earlier work
T. vivax [13] = assay: T. vivax EC50 (from Mabille et al.); format: cell-based, Trypanosoma vivax; details: from Table 8 data
T. equiperdum [14] = tested on: T. equiperdum; parameters: method as in Hulpia et al. [38]; details: compound marked *; ref Hulpia et al. [38]; cited from earlier work
[15] = Leishmania mexicana, read-out: SUPKO EC50, resazurin, promastigotes

Compound | EC50 (L. mexicana Cas9; Leishmania mexicana) | EC50 (T. vivax [1]) | EC50 (T. congolense IL3000 [2]) | EC50 (T. equiperdum [3]) | SI T. congolense [4] | SI T. equiperdum [4] | SI T. evansi [4] | EC50 [5] | EC50 (T. congolense 6C3 [6]) | T. congolense 6C3 RF (T. congolense 6C3 [6]) | EC50 (L. mexicana SUPKO+TvxNT3; Leishmania mexicana) | SUPKO+TvxNT3 RF (SUPKO) (L. mexicana SUPKO+TvxNT3) | EC50 (L. mexicana SUPKO; [15]) | SUPKO RF (Cas9) (L. mexicana SUPKO) | EC50 (L. mexicana SUPKO+TcoAT1; Leishmania mexicana) | SUPKO+TcoAT1 RF (SUPKO) (L. mexicana SUPKO+TcoAT1) | EC50 (T. evansi [7]) | EC50 (T.b.b. B48 [8]) | also measured
Nc1ncnc2c1c(C(F)(F)F)cn2[C@@H]1O[C@H](CO)[C@@H](O)[C@H]1O [FH6367, 7-trifluoromethyl-7-deazaadenosine] | 26100 ± 6400 nM | 820 ± 90 nM | 1800 ± 440 nM | 190 ± 30 nM | 0.3 | 2.6 | 0.7 | 490 ± 10 nM | 890 ± 170 nM | 0.50 | 7400 ± 1400 nM | >13.5 | > 100000 nM | >3.83 | 3790 ± 340 nM | >26.4 | 680 ± 110 nM | 900 ± 130 nM | 
Nc1ncnc2c1c(Br)cn2[C@@H]1O[C@H](CO)C[C@H]1O [FH7429_u, 7-bromo-7-deaza-3′-deoxyadenosine] | 27300 ± 7000 nM | 18 ± 3 nM | 0.69 ± 0.07 nM | 0.51 ± 0.07 nM | 3158 | 4271 | 2430 | 2180 ± 410 nM | 0.49 ± 0.09 nM | 0.71 | 42900 ± 12000 nM | >2.33 | > 250000 nM | >3.6 | 27000 ± 5800 nM | >7.4 | 0.9 ± 0.22 nM | 4.8 ± 0.5 nM | Ki (TcoAT1; 0.05 µM [3H]-adenosine, 10 s, IC50 converted to Ki, read-out: Ki on the transport of [3H]-adenosine): 259000 ± 11000 nM; ΔG0 (TcoAT1; Gibbs free energy of binding, from Km or Ki): -4.9 kcal/mol; ΔG0 (TvxNT3): -5.14 kcal/mol
Nc1ncnc2c1c(-c1ccccn1)cn2[C@@H]1O[C@H](CO)[C@@H](O)[C@H]1O [TH1008] |  | 12900 ± 4400 nM |  |  | 110 | 303 | 466 |  |  | 0.33 |  |  |  | >8.5 |  |  |  |  | EC50 (T.b.b. B48 [9]): 390 ± 30 nM; EC50 (T. evansi [10]): 40 ± 5 nM; EC50 (L. mexicana Cas9; resazurin, promastigotes): 11700 ± 500 nM; EC50 ([4]; resazurin, 96 well plates, read-out: HEK EC50): 18500 ± 1500 nM; EC50 (T. congolense IL3000 [11]): 170 ± 50 nM; EC50 (L. mexicana SUPKO+TvxNT3; resazurin, promastigotes): > 100000 nM; EC50 (L. mexicana SUPKO; resazurin, promastigotes, read-out: SUPKO EC50): > 100000 nM; EC50 (L. mexicana SUPKO+TcoAT1; resazurin, promastigotes): > 100000 nM; EC50 (T. congolense 6C3 [12]): 56 ± 13 nM; fold higher EC50 against T. vivax compared to T. congolense (T. vivax [13]): 10–165 fold; EC50 (T. equiperdum [14]): 61 ± 5 nM
